Laboratory results taken from patent US9499550B2 (BRISTOL-MYERS SQUIBB COMPANY, priority 2012, dated 2016).
Like-named read-outs stand apart in the source and are kept apart here.

Legend:
[1] = test system: HCV genotype 1b (Con1) replicon in HUH-7 cells; assay: HCV replicon luciferase reporter assay, genotype 1b; type: cell-based; conditions: Hepatitis C virus, Huh-7, 72 h, HCV genotype 1b replicon luciferase, 3 days incubation
Summary of the method: (§1)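 Replicon inhibition for both genotypes was measured as Renilla luciferase signal (EnduRen, 7.5 μM final, 2 h) after 3-day, 37° C exposure of replicon-bearing HUH-7 cells in 4% FCS DMEM, 0.5% DMSO. The 1b construct carries S1179I; the 1a H77 construct carries P1496L and S2204I. Twenty-point, 3-fold dilutions were fitted four-parametrically for EC50, and CC50 was taken from multiplexed Cell Titer-Blue.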

[2] = test system: HCV genotype 1a (H77 strain) replicon in HUH-7 cells; assay: HCV replicon luciferase reporter assay, genotype 1a; type: cell-based; conditions: Hepatitis C virus, Huh-7, 72 h, HCV genotype 1a replicon luciferase, 3 days incubation
Summary of the method: as §1

[3] = GETYPE1B, read-out: LE_1b (EC50, range)
[4] = GETYPE1A, read-out: LE_1a (EC50, range)

Row | Structure (SMILES) | EC50 ([1]; read-out: LE_1b (EC50, range)) | EC50 ([2]; read-out: LE_1a (EC50, range)) | EC50 [1, 3] | EC50 [2, 4] | EC50 ([1]; GETYPE1B, read-out: LE_1b (EC50)) | EC50 ([2]; GETYPE1A, read-out: LE_1a (EC50))
1 | C[C@@H]1CC/C=C\[C@@H]2C[C@@]2(C(=O)NS(=O)(=O)C2(C)CC2)NC(=O)[C@@H]2C[C@@H](Oc3ncnc4c(Cl)cccc34)CN2C(=O)[C@@H](NC(=O)OC(C)(C)C)[C@H](C)C1 [Compound 4145, tert-butyl (2R,6S,7R,9R,13aS,14aR,16aS,Z)-2-(8-chloroquinazolin-4-yloxy)-7,9-dimethyl-14a-(1-methylcyclopropylsulfonylcarbamoyl)-5,16-dioxo-1,2,3,5,6,7,8,9,10,11,13a,14,14a,15,16,16a-hexadecahydrocyclopropa[e]pyrrolo[1,2-a][1,4]diazacyclopentadecin-6-ylcarbamate] | < 5.46 nM | < 5.46 nM | – | – | – | –
2 | COc1ccc2c(O[C@@H]3C[C@H]4C(=O)N[C@]5(C(=O)NS(=O)(=O)C6(CF)CC6)C[C@H]5/C=C\CC[C@@H](C)C[C@@H](C)[C@H](NC(=O)OC(C)(C)C)C(=O)N4C3)nccc2c1 [Compound 4147, tert-butyl (2R,6S,7R,9R,13aS,14aR,16aS,Z)-14a-(1-(fluoromethyl)cyclopropylsulfonylcarbamoyl)-2-(6-methoxyisoquinolin-1-yloxy)-7,9-dimethyl-5,16-dioxo-1,2,3,5,6,7,8,9,10,11,13a,14,14a,15,16,16a-hexadecahydrocyclopropa[e]pyrrolo[1,2-a][1,4]diazacyclopentadecin-6-ylcarbamate] | < 5.46 nM | < 5.46 nM | – | – | – | –
3 | COc1ccc2c(O[C@@H]3C[C@H]4C(=O)N[C@]5(C(=O)NS(=O)(=O)C6(CF)CC6)C[C@H]5/C=C\CC[C@@H](C)C[C@@H](C)[C@H](NC(=O)OC(C)(C)C(F)(F)F)C(=O)N4C3)cc(-c3ccc(OC(C)C)cc3)nc2c1 [Compound 4148] | – | – | < 5.46 nM | < 5.46 nM | – | –
4 | CCOc1cnc(O[C@@H]2C[C@H]3C(=O)N[C@]4(C(=O)NS(=O)(=O)C5(CF)CC5)C[C@H]4/C=C\CC[C@@H](C)C[C@@H](C)[C@H](NC(=O)OC(C)(C)C(F)(F)F)C(=O)N3C2)c2ccccc12 [Compound 4149] | – | – | < 5.46 nM | < 5.46 nM | – | –
5 | COc1ccc2c(O[C@@H]3C[C@H]4C(=O)N[C@]5(C(=O)NS(=O)(=O)C6(CF)CC6)C[C@H]5/C=C\CC[C@@H](C)C[C@@H](C)[C@H](NC(=O)OC(C)(C)C(F)(F)F)C(=O)N4C3)nccc2c1 [Compound 4151] | – | – | < 5.46 nM | < 5.46 nM | – | –
6 | COc1cnc(O[C@@H]2C[C@H]3C(=O)N[C@]4(C(=O)NS(=O)(=O)C5(Cl)CC5)C[C@H]4/C=C\CC[C@@H](C)C[C@@H](C)[C@H](NC(=O)OC(C)(C)C(F)(F)F)C(=O)N3C2)c2ccccc12 [Compound 4153] | – | – | < 5.46 nM | < 5.46 nM | – | –
7 | COc1ccc2c(O[C@@H]3C[C@H]4C(=O)N[C@]5(C(=O)NS(=O)(=O)C6(CF)CC6)C[C@H]5/C=C\CC[C@@H](C)C[C@@H](C)[C@H](NC(=O)OC(C)(C)C(F)(F)F)C(=O)N4C3)ncc(OC)c2c1 [Compound 4154] | – | – | < 5.46 nM | < 5.46 nM | – | –
8 | COc1cnc(O[C@@H]2C[C@H]3C(=O)N[C@]4(C(=O)NS(=O)(=O)C5(CF)CC5)C[C@H]4/C=C\CC[C@@H](C)C[C@@H](C)[C@H](NC(=O)OC(C)(C)C(F)(F)F)C(=O)N3C2)c2ccccc12 [Compound 4155] | – | – | < 5.46 nM | < 5.46 nM | – | –
9 | COc1ccc2c(O[C@@H]3C[C@H]4C(=O)N[C@]5(C(=O)NS(=O)(=O)C6(CF)CC6)C[C@H]5/C=C\CC[C@@H](C)C[C@@H](C)[C@H](NC(=O)OC(C)(C)C)C(=O)N4C3)ncc(OC)c2c1 [Compound 4156, tert-butyl (2R,6S,7R,9R,13aS,14aR,16aS,Z)-2-(4,6-dimethoxyisoquinolin-1-yloxy)-14a-(1-(fluoromethyl)cyclopropylsulfonylcarbamoyl)-7,9-dimethyl-5,16-dioxo-1,2,3,5,6,7,8,9,10,11,13a,14,14a,15,16,16a-hexadecahydrocyclopropa[e]pyrrolo[1,2-a][1,4]diazacyclopentadecin-6-ylcarbamate] | < 5.46 nM | < 5.46 nM | – | – | – | –
10 | COc1cnc(O[C@@H]2C[C@H]3C(=O)N[C@]4(C(=O)NS(=O)(=O)C5(CF)CC5)C[C@H]4/C=C\CC[C@@H](C)C[C@@H](C)[C@H](NC(=O)OC(C)(C)C)C(=O)N3C2)c2ccccc12 [Compound 4157, tert-butyl (2R,6S,7R,9R,13aS,14aR,16aS,Z)-14a-(1-(fluoromethyl)cyclopropylsulfonylcarbamoyl)-2-(4-methoxyisoquinolin-1-yloxy)-7,9-dimethyl-5,16-dioxo-1,2,3,5,6,7,8,9,10,11,13a,14,14a,15,16,16a-hexadecahydrocyclopropa[e]pyrrolo[1,2-a][1,4]diazacyclopentadecin-6-ylcarbamate] | < 5.46 nM | < 5.46 nM | – | – | – | –
11 | C[C@@H]1CC/C=C\[C@@H]2C[C@@]2(C(=O)NS(=O)(=O)C2(C)CC2)NC(=O)[C@@H]2C[C@@H](Oc3ncc(OCC4CC4)c4ccccc34)CN2C(=O)[C@@H](NC(=O)OC(C)(C)C(F)(F)F)[C@H](C)C1 [Compound 4158] | – | – | < 5.46 nM | < 5.46 nM | – | –
12 | COc1cc2ccnc(O[C@@H]3C[C@H]4C(=O)N[C@]5(C(=O)NS(=O)(=O)C6(CF)CC6)C[C@H]5/C=C\CC[C@@H](C)C[C@@H](C)[C@H](NC(=O)OC(C)(C)C)C(=O)N4C3)c2cc1F [Compound 4159, tert-butyl (2R,6S,7R,9R,13aS,14aR,16aS,Z)-2-(7-fluoro-6-methoxyisoquinolin-1-yloxy)-14a-(1-(fluoromethyl)cyclopropylsulfonylcarbamoyl)-7,9-dimethyl-5,16-dioxo-1,2,3,5,6,7,8,9,10,11,13a,14,14a,15,16,16a-hexadecahydrocyclopropa[e]pyrrolo[1,2-a][1,4]diazacyclopentadecin-6-ylcarbamate] | < 5.46 nM | < 5.46 nM | – | – | – | –
13 | COc1cc2c(OC)cnc(O[C@@H]3C[C@H]4C(=O)N[C@]5(C(=O)NS(=O)(=O)C6(CF)CC6)C[C@H]5/C=C\CC[C@@H](C)C[C@@H](C)[C@H](NC(=O)OC(C)(C)C(F)(F)F)C(=O)N4C3)c2cc1F [Compound 4160] | – | – | < 5.46 nM | < 5.46 nM | – | –
14 | COc1cc2ccnc(O[C@@H]3C[C@H]4C(=O)N[C@]5(C(=O)NS(=O)(=O)C6(CF)CC6)C[C@H]5/C=C\CC[C@@H](C)C[C@@H](C)[C@H](NC(=O)OC(C)(C)C(F)(F)F)C(=O)N4C3)c2cc1F [Compound 4161] | – | – | < 5.46 nM | < 5.46 nM | – | –
15 | COc1ccc2ncc(O[C@@H]3C[C@H]4C(=O)N[C@]5(C(=O)NS(=O)(=O)C6(C)CC6)C[C@H]5/C=C\CC[C@@H](C)C[C@@H](C)[C@H](NC(=O)OC(C)(C)C(F)(F)F)C(=O)N4C3)nc2c1 [Compound 4162] | – | – | < 5.46 nM | < 5.46 nM | – | –
16 | COc1ccc2nc(O[C@@H]3C[C@H]4C(=O)N[C@]5(C(=O)NS(=O)(=O)C6(C)CC6)C[C@H]5/C=C\CC[C@@H](C)C[C@@H](C)[C@H](NC(=O)OC(C)(C)C(F)(F)F)C(=O)N4C3)cnc2c1 [Compound 4163] | – | – | < 5.46 nM | 4.82 to 103 nM | 1.89 nM | 9.8 nM
17 | COc1cc2c(OC)cnc(O[C@@H]3C[C@H]4C(=O)N[C@]5(C(=O)NS(=O)(=O)C6(C)CC6)C[C@H]5/C=C\CC[C@@H](C)C[C@@H](C)[C@H](NC(=O)OC(C)(C)C(F)(F)F)C(=O)N4C3)c2cc1F [Compound 4164] | – | – | < 5.46 nM | < 5.46 nM | – | –
18 | COc1cc2ccnc(O[C@@H]3C[C@H]4C(=O)N[C@]5(C(=O)NS(=O)(=O)C6(CF)CC6)C[C@H]5/C=C\CC[C@@H](C)C[C@@H](C)[C@H](NC(=O)C(C)(C)C)C(=O)N4C3)c2cc1F [Compound 4165, (2R,6S,7R,9R,13aS,14aR,16aS,Z)-2-(7-fluoro-6-methoxyisoquinolin-1-yloxy)-N-(1-(fluoromethyl)cyclopropylsulfonyl)-7,9-dimethyl-5,16-dioxo-6-pivalamido-1,2,3,5,6,7,8,9,10,11,13a,14,14a,15,16,16a-hexadecahydrocyclopropa[e]pyrrolo[1,2-a][1,4]diazacyclopentadecine-14a-carboxamide] | < 5.46 nM | < 5.46 nM | – | – | – | –
19 | C[C@@H]1CC/C=C\[C@@H]2C[C@@]2(C(=O)NS(=O)(=O)C2CC2)NC(=O)[C@@H]2C[C@@H](Oc3ncc(OCC4CC4)c4ccc(F)cc34)CN2C(=O)[C@@H](NC(=O)OC(C)(C)C)[C@H](C)C1 [Compound 4166, tert-butyl (2R,6S,7R,9R,13aS,14aR,16aS,Z)-2-(4-(cyclopropylmethoxy)-7-fluoroisoquinolin-1-yloxy)-14a-(cyclopropylsulfonylcarbamoyl)-7,9-dimethyl-5,16-dioxo-1,2,3,5,6,7,8,9,10,11,13a,14,14a,15,16,16a-hexadecahydrocyclopropa[e]pyrrolo[1,2-a][1,4]diazacyclopentadecin-6-ylcarbamate] | < 5.46 nM | < 5.46 nM | – | – | – | –
20 | COc1ccc2c(O[C@@H]3C[C@H]4C(=O)N[C@]5(C(=O)NS(=O)(=O)C6(CF)CC6)C[C@H]5/C=C\CC[C@@H](C)C[C@@H](C)[C@H](NC(=O)OC(C)(C)C)C(=O)N4C3)nc(-c3ccc(OC(C)C)cc3)cc2c1 [Compound 4167, tert-butyl (2R,6S,7R,9R,13aS,14aR,16aS,Z)-14a-(1-(fluoromethyl)cyclopropylsulfonylcarbamoyl)-2-(3-(4-isopropoxyphenyl)-6-methoxyisoquinolin-1-yloxy)-7,9-dimethyl-5,16-dioxo-1,2,3,5,6,7,8,9,10,11,13a,14,14a,15,16,16a-hexadecahydrocyclopropa[e]pyrrolo[1,2-a][1,4]diazacyclopentadecin-6-ylcarbamate] | < 5.46 nM | < 5.46 nM | – | – | – | –
